Earlier results, collected in US20070098750A1, “PESTICIDAL COMPOSITIONS CONTAINING ISOPROPYL MYRISTATE AND ANALOGS OF SAME AS A SYNERGIST FOR PLANT ESSENTIAL OILS” (EcoSmart Technologies, Inc., priority 2005, published 2007).

SMILES: CCCCOCCOCCOCc1cc2c(cc1CCC)OCO2 [PBO, piperonyl butoxide]
- Chronic toxicity finding (even at the lowest doses, 30 mg/kg/day): increased liver weights
- Carcinogenicity finding in animal studies (even treatments as low as 1.2%): hepatocellular carcinomas
